Results reported in US20230339878A1, “SLC26A3 INHIBITORS AND USE THEREOF” (THE REGENTS OF THE UNIVERSITY OF CALIFORNIA, priority 2018, published 2023).
“Also recorded” adds a separate entry of the source.

Target: T1, TMEM16A (Homo sapiens, UniProt Q5XXA6)
T1 sequence (Q5XXA6 1-986): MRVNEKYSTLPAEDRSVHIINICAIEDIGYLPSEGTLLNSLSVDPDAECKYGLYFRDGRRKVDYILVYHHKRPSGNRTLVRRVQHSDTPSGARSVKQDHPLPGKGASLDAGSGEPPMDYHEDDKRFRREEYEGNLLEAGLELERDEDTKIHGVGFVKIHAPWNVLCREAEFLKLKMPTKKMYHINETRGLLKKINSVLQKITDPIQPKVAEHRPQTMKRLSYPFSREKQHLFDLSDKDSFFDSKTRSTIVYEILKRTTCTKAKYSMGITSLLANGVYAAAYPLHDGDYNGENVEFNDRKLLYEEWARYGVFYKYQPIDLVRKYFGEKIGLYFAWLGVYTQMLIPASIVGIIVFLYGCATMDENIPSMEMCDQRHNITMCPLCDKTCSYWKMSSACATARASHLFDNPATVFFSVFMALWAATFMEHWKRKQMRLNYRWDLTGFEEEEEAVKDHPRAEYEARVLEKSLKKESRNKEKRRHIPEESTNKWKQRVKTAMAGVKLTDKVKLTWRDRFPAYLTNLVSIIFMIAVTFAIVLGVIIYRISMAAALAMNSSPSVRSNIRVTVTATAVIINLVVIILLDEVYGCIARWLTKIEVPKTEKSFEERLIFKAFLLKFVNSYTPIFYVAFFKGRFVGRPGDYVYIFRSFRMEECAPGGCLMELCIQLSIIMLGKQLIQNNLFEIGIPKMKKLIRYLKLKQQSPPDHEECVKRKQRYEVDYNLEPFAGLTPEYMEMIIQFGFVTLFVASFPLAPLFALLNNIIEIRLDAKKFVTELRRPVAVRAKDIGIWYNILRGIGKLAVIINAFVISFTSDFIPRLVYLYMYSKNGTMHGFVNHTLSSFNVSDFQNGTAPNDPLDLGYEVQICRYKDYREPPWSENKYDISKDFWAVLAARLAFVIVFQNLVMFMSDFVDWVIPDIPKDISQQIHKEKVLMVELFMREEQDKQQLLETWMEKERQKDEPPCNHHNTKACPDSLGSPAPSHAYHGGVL
Experiment: Selectivity: TMEM16A (ATP-stimulated) YFP assay
Assay type: cell-based
Details: 10 µM
Excerpt: To investigate Compound A1 selectivity, transport assays were done on a panel of SLC26-family homologs, and other relevant epithelial ion transporters and channels. […] In separate studies, to investigate possible action of Compound A1 on multiple ion transporters and channels in a human epithelium, human bronchial epithelial (HBE) cells were studied by short-circuit current, with successive additions of amiloride (to block the epithelial sodium channel ENaC), forskolin, CFTRinh-172 (to block CFTR), and ATP (to activate the Ca^2+-activated chloride channel, CaCC) (FIG. 5C).
YFP-based assays of CFTR, pendrin and TMEM16A were as described. HEK cells transfected to express YFP and SLC26A3, slc26a6 or slc26a9 were functionally assayed using a Cl^-/I^- exchange protocol. Assays of Cl^-/HCO3^- exchange were done using BCECF as an intracellular pH indicator as described for pendrin. […]
HEK293 cells transfected with pIRES-YFP-slc26a9 were plated in 96-well black-walled, clear-bottom tissue culture plates (Corning Life Sciences, Tewksbury, MA) after coating with FNC Coating Mix (AthenaES, Baltimore, MD). […] Assays of slc26a9-mediated anion exchange were done by initially recording YFP fluorescence prior to addition of 100 µL of NaI-substituted PBS to test wells, with the initial rate of Cl^-/I^- exchange deduced from fluorescence intensity by single exponential regression. […]

With `Cc1c(CC(=O)O)c(=O)oc2c(C)c(OCc3cccc(Br)c3)ccc12` [Compound A1] the “effect on activity of TMEM16A” value was “did not alter the activity; also recorded: differences not significant”.
